Data taken from patent US7351737B2, “4-[(8-substituted)-6-chromanoyl]-and 4-[8-substituted)-chroman-6-YL-ethynyl]-benzoic and phenylacetic acids, their esters and salts having cytochrome P450RAI inhibitory activity” (Allergan, Inc., priority 2002, dated 2008).

Columns and labels:
skin of fuzzy rats = test: Topical skin irritation test; format: in vivo, female fuzzy rats (Hsd:FUZZY-fz); conditions: topical in acetone, daily Day 1-14, group average of grade 0-4
Text: The topical retinoid all-trans-retinoic acid (ATRA) and oral retinoids such as 13-cis RA and etretinate are known to induce substantial skin irritation in humans. This irritation is a direct result of activation of the RAR nuclear receptors. Analysis of retinoid topical irritation is also a highly reproducable method of determining in vivo retinoid potency. The female fuzzy rats provide a convenient animal model of topical irritation, since retinoid-induced skin flaking and abrasion can be readily scored by eye, while their larger size than those of mice also allows multiple sampling of serum for clinical analyses. Topical application of P450RAI inhibitors should cause an increase in the endogenous levels of ATRA that would result in ATRA-induced irritation in skin of hairless mice. In these tests female fuzzy rats ((Hsd:FUZZY-fz), 6-7 weeks old, were obtained from Harlan Sprague-Dawley (Indianapolis, Ind.). The animals were about 8-9 weeks old at the start of the experiments. Food (Purina Rodent Chow 5001) and water purified by reverse osmosis were provided ad libitum. The rats were housed individually throughout the dosing period. Test chemicals were dissolved in acetone (vehicle) for application to the backs of the rats. Two days prior to actual administration of the test compounds, rats were handled daily and dosed with vehicle at a volume of 0.5 ml/kg. Starting on Day 1 thought Day 14 (dosing period), animals were dosed with the vehicle or compound(s) according to their group assignment. The rats in the tests were observed daily and the dorsal skin was graded for the degree of erythema/eschar and overall appearance. The scoring was in accordance with Table 2, below. [table] Daily group average was calculated by dividing the sum of the individual grade by the number of animals in each treatment group. The attached data in Table 3 indicates the retinoid-mimetic effects of some P450RAI inhibitors on the skin of fuzzy rats in the above described tests and in accordance with the above-indicated scoring.

RARα = target: T1, RARα (Homo sapiens, UniProt P10276); test: chimeric receptor transactivation assay, RARα; format: cell-based; conditions: for RAR α (EFFICACY): value in brackets
T1 sequence (P10276 183-417 limits assumed): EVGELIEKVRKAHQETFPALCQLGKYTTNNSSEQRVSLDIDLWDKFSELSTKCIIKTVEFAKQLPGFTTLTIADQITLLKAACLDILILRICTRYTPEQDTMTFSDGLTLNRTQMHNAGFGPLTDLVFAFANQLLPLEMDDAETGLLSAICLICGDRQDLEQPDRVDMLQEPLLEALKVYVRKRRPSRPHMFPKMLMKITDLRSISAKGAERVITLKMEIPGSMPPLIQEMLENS
Text: (§1) Assays described below measure the ability of a compound to bind to, and/or activate various retinoid receptor subtypes. When in these assays a compound binds to a given receptor subtype and activates the transcription of a reporter gene through that subtype, then the compound is considered an agonist of that receptor subtype. […] In the below described assays the ability of the compounds to bind to RARα, RARβ, RARγ, RXRα, RXRβ and RXRγ receptors, and the ability or inability of the compounds to activate transcription of a reporter gene through these receptor subtypes can be tested.
(§2) As far as specific assays are concerned, a chimeric receptor transactivation assay which tests for agonist-like activity in the RARα, RARβ, and RARγ, receptor subtypes, and which is based on work published by Feigner P. L. and Holm M. (1989) Focus, 112 is described in detail in U.S. Pat. No. 5,455,265. The specification of U.S. Pat. No. 5,455,265 is hereby expressly incorporated by reference. The numeric results obtained with several preferred compounds of this invention in this assay are shown below in Table 1.
(§3) A holoreceptor transactivation assay and a ligand binding assay which measure the antagonist/agonist like activity of the compounds of the invention, or their ability to bind to the several retinoid receptor subtypes, respectively, are described in published PCT Application No. WO WO93/11755 (particularly on pages 30-33 and 37-41) published on Jun. 24, 1993, the specification of which is also incorporated herein by reference. A detailed experimental procedure for holoreceptor transactivations has been described by Heyman et al. Cell 68, 397-406, (1992); Allegretto et al. J. Biol. Chem. 268, 26625-26633, and Mangelsdorf et al. The Retinoids: Biology, Chemistry and Medicine, pp 319-349, Raven Press Ltd., New York, which are expressly incorporated herein by reference. The results obtained in this assay are expressed in EC50 numbers, as they are also in the chimeric receptor transactivation assay. The results of ligand binding assay are expressed in Kd numbers. (See Cheng et al. Biochemical Pharmacology Vol. 22 pp 3099-3108, expressly incorporated herein by reference.)

RARβ = target: T2, RARβ (Homo sapiens, UniProt P10826); test: chimeric receptor transactivation assay, RARβ; format: cell-based; conditions: first item of cell EC50/(EFFICACY)/Kd, read-out: RAR β EC50
T2 sequence (P10826 183-417 limits assumed): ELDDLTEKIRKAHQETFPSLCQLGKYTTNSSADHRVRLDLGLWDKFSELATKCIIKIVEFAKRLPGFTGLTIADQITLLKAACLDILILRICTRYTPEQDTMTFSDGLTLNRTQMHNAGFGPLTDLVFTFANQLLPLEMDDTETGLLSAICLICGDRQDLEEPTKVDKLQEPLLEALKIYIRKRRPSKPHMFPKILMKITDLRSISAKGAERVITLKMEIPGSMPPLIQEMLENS
Text: as §1
As far as specific assays are concerned, a chimeric receptor transactivation assay which tests for agonist-like activity in the RARα, RARβ, and RARγ, receptor subtypes, and which is based on work published by Feigner P. L. and Holm M. (1989) Focus, 112 is described in detail in U.S. Pat. No. 5,455,265. The specification of U.S. Pat. No. 5,455,265 is hereby expressly incorporated by reference. The numeric results obtained with several preferred compounds of this invention in this assay are shown below in Table 1. […]

RARγ = target: T3, RARγ (Homo sapiens, UniProt P13631); test: chimeric receptor transactivation assay, RARγ; format: cell-based; conditions: for RAR γ (EFFICACY): value in brackets
T3 sequence (P13631 185-419 limits assumed): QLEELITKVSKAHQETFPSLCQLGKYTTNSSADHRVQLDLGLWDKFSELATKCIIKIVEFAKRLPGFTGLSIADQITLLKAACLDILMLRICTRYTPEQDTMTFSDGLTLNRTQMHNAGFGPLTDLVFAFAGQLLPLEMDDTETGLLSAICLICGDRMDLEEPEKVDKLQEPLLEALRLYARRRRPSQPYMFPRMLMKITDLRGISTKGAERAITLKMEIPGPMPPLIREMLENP
Text: as §1, §2, §3

| SMILES | Irritation Score on day 14 (skin of fuzzy rats; 1% compound + 0.1% retinol) | Irritation Score on day 14 (skin of fuzzy rats; 1% compound alone) | RAR α (EFFICACY) (RARα) | RAR γ (EFFICACY) (RARγ) | further results |
| --- | --- | --- | --- | --- | --- |
| C#Cc1cc(C(=O)Oc2ccc(CC(=O)O)cc2)cc2c1OC(C)(C)CC2(C)C [Compound 1, 8-Ethynyl-2,2,4,4-tetramethyl-chroman-6-carboxylic acid 4-carboxymethyl-phenyl ester] | – | – | – | – | Irritation Score on day 14 (skin of fuzzy rats; 3% compound + 0.1% retinol): 1; Irritation Score on day 14 (skin of fuzzy rats; 3% compound alone): 2.6 |
| C#Cc1cc(C(=O)Oc2ccc(CC(=O)OCC)cc2)cc2c1OC(C)(C)CC2(C)C [Compound 2, 8-Ethynyl-2,2,4,4-tetramethyl-chroman-6-carboxylic acid 4-ethoxycarbonylmethyl-phenyl ester] | 1.6 | 0 | – | – | – |
| C#Cc1cc(C(=O)Oc2ccc(CC(=O)OCOC(C)=O)cc2)cc2c1OC(C)(C)CC2(C)C [Compound 3, 8-Ethynyl-2,2,4,4-tetramethyl-chroman-6-carboxylic acid 4-acetoxymethoxycarbonylmethyl-phenyl ester] | 2.4 | 0 | – | – | – |
| C#Cc1cc(C(=O)Oc2ccc(CC(=O)O)c(F)c2)cc2c1OC(C)(C)CC2(C)C [Compound 4, 8-Ethynyl-2,2,4,4-tetramethyl-chroman-6-carboxylic acid-4-carboxymethyl-3-fluoro-phenyl ester] | 3.4 | 1.4 | 20 | 20 | EC50 (RARβ): 263 nM |
| C#Cc1cc(C(=O)Oc2ccc(CC(=O)OCOC(C)=O)c(F)c2)cc2c1OC(C)(C)CC2(C)C [Compound 5, 8-Ethynyl-2,2,4,4-tetramethyl-chroman-6-carboxylic acid 4-acetoxymethoxycarbonylmethyl-3-fluoro-phenyl ester] | – | – | 10 | – | Irritation Score on day 14 (skin of fuzzy rats; 0.1% compound + 0.1% retinol): 2.2; Irritation Score on day 14 (skin of fuzzy rats; 0.1% compound alone): 0.4 |
| C#Cc1cc(C#Cc2ccc(CC(=O)O)cc2)cc2c1OC(C)(C)CC2(C)C [Compound 40, [4-(8-Ethynyl-2,2,4,4-tetramethyl-chroman-6-ylethynyl)-phenyl]-acetic acid] | – | – | 15 | 30 | EC50 (RARα; first item of cell EC50/(EFFICACY)/Kd, read-out: RAR α EC50): 129 nM; EC50 (RARβ): 101 nM; EC50 (RARγ; first item of cell EC50/(EFFICACY)/Kd, read-out: RAR γ EC50): 149 nM |
| C#Cc1cc(C#Cc2ccc(CC(=O)O)c(F)c2)cc2c1OC(C)(C)CC2(C)C [Compound 41, [4-(8-Ethynyl-2,2,4,4-tetramethyl-chroman-6-ylethynyl)-2-fluoro-phenyl]-acetic acid] | – | – | 10 | 20 | – |
